Measurements as given in the NIST ThermoML archive (doi:10.1021/je800046k).

Test: xn = mol fraction of the nth substance listed
Conditions: for surface tension liquid-gas: Pendant drop shape; for mass density: 101 kPa, Liquid

Cc1ccc(C)c(C)c1 [1,2,4-trimethylbenzene] + CC(=O)OC(C)C
Conditions	mass density [kg/m3]	surface tension liquid-gas [mN/m]
298.15 K, x2 = 0	871.71	29.3
298.15 K, x2 = 0.0492	871.44	28.8
298.15 K, x2 = 0.101	871.17	28.25
298.15 K, x2 = 0.1507	870.9	27.69
298.15 K, x2 = 0.1995	870.64	27.13
298.15 K, x2 = 0.251	870.36	26.6
298.15 K, x2 = 0.3006	870.1	26.09
298.15 K, x2 = 0.3513	869.83	25.6
298.15 K, x2 = 0.4008	869.56	25.15
298.15 K, x2 = 0.45	869.3	24.75
298.15 K, x2 = 0.4998	869.03	24.34
298.15 K, x2 = 0.5498	868.76	23.99
298.15 K, x2 = 0.6007	868.49	23.64
298.15 K, x2 = 0.6492	868.23	23.33
298.15 K, x2 = 0.7004	867.95	23.05
298.15 K, x2 = 0.7501	867.68	22.78
298.15 K, x2 = 0.7968	867.42	22.56
298.15 K, x2 = 0.8495	867.12	22.34
298.15 K, x2 = 0.8995	866.84	22.15
298.15 K, x2 = 0.9492	866.55	21.99
308.15 K, x2 = 0	863.68	28.24
308.15 K, x2 = 0.0488	863.27	27.69
308.15 K, x2 = 0.0999	862.84	27.12
308.15 K, x2 = 0.1499	862.42	26.56
308.15 K, x2 = 0.2002	861.99	26
308.15 K, x2 = 0.2504	861.56	25.48
308.15 K, x2 = 0.3001	861.13	24.96
308.15 K, x2 = 0.3519	860.67	24.47
308.15 K, x2 = 0.4	860.24	24.04
308.15 K, x2 = 0.45	859.79	23.62
308.15 K, x2 = 0.4964	859.37	23.24
308.15 K, x2 = 0.5495	858.89	22.86
308.15 K, x2 = 0.6008	858.42	22.51
308.15 K, x2 = 0.6499	857.96	22.21
308.15 K, x2 = 0.7004	857.49	21.88
308.15 K, x2 = 0.7494	857.03	21.67
308.15 K, x2 = 0.7986	856.55	21.43
308.15 K, x2 = 0.85	856.05	21.2
308.15 K, x2 = 0.8997	855.56	21.05
308.15 K, x2 = 0.9498	855.05	20.89
313.15 K, x2 = 0	859.58	27.71
313.15 K, x2 = 0.0494	859.1	27.14
313.15 K, x2 = 0.0983	858.61	26.56
313.15 K, x2 = 0.1504	858.09	26
313.15 K, x2 = 0.1999	857.59	25.44
313.15 K, x2 = 0.2506	857.07	24.93
313.15 K, x2 = 0.3004	856.55	24.41
313.15 K, x2 = 0.3508	856.02	23.92
313.15 K, x2 = 0.3995	855.5	23.51
313.15 K, x2 = 0.4493	854.97	23.08
313.15 K, x2 = 0.4992	854.43	22.65
313.15 K, x2 = 0.5492	853.88	22.29
313.15 K, x2 = 0.6	853.32	21.94
313.15 K, x2 = 0.6493	852.77	21.65
313.15 K, x2 = 0.6995	852.2	21.33
313.15 K, x2 = 0.7501	851.62	21.09
313.15 K, x2 = 0.8	851.04	20.88
313.15 K, x2 = 0.8504	850.44	20.65
313.15 K, x2 = 0.9004	849.84	20.52
313.15 K, x2 = 0.9478	849.26	20.37

CC(=O)OCC(C)C [2-methylpropyl ethanoate] + Cc1cc(C)cc(C)c1
Conditions	mass density [kg/m3]	surface tension liquid-gas [mN/m]
298.15 K, x1 = 0.051	861.07	27.76
298.15 K, x1 = 0.1006	861.07	27.49
298.15 K, x1 = 0.1506	861.09	27.2
298.15 K, x1 = 0.2004	861.14	26.91
298.15 K, x1 = 0.2498	861.2	26.62
298.15 K, x1 = 0.3003	861.29	26.31
298.15 K, x1 = 0.35	861.41	26.04
298.15 K, x1 = 0.4004	861.56	25.77
298.15 K, x1 = 0.4502	861.74	25.49
298.15 K, x1 = 0.5004	861.94	25.23
298.15 K, x1 = 0.5499	862.17	24.99
298.15 K, x1 = 0.5996	862.44	24.75
298.15 K, x1 = 0.6494	862.74	24.52
298.15 K, x1 = 0.6998	863.09	24.31
298.15 K, x1 = 0.7498	863.46	24.1
298.15 K, x1 = 0.8007	863.89	23.91
298.15 K, x1 = 0.8502	864.36	23.7
298.15 K, x1 = 0.8998	864.88	23.55
298.15 K, x1 = 0.9491	865.43	23.37
298.15 K, x1 = 1	866.06	23.15
308.15 K, x1 = 0.0513	852.75	26.89
308.15 K, x1 = 0.0999	852.66	26.61
308.15 K, x1 = 0.1503	852.57	26.3
308.15 K, x1 = 0.2007	852.51	26
308.15 K, x1 = 0.2505	852.48	25.7
308.15 K, x1 = 0.3013	852.45	25.39
308.15 K, x1 = 0.35	852.46	25.1
308.15 K, x1 = 0.4002	852.49	24.82
308.15 K, x1 = 0.4506	852.56	24.55
308.15 K, x1 = 0.5	852.64	24.29
308.15 K, x1 = 0.5505	852.78	24.03
308.15 K, x1 = 0.5997	852.91	23.77
308.15 K, x1 = 0.6503	853.09	23.53
308.15 K, x1 = 0.6995	853.32	23.32
308.15 K, x1 = 0.75	853.57	23.09
308.15 K, x1 = 0.8002	853.86	22.89
308.15 K, x1 = 0.8502	854.21	22.7
308.15 K, x1 = 0.8997	854.61	22.52
308.15 K, x1 = 0.9498	855.03	22.35
308.15 K, x1 = 1	855.51	22.16
313.15 K, x1 = 0.0494	848.6	26.45
313.15 K, x1 = 0.1	848.45	26.14
313.15 K, x1 = 0.1493	848.33	25.81
313.15 K, x1 = 0.2002	848.2	25.52
313.15 K, x1 = 0.2499	848.1	25.2
313.15 K, x1 = 0.299	848.03	24.92
313.15 K, x1 = 0.3492	847.98	24.62
313.15 K, x1 = 0.3988	847.95	24.33
313.15 K, x1 = 0.4492	847.96	24.06
313.15 K, x1 = 0.5003	847.98	23.78
313.15 K, x1 = 0.5518	848.05	23.51
313.15 K, x1 = 0.5992	848.13	23.28
313.15 K, x1 = 0.6503	848.26	23.02
313.15 K, x1 = 0.6995	848.41	22.78
313.15 K, x1 = 0.7512	848.61	22.56
313.15 K, x1 = 0.8005	848.85	22.35
313.15 K, x1 = 0.8499	849.13	22.14
313.15 K, x1 = 0.9002	849.43	21.98
313.15 K, x1 = 0.9504	849.8	21.81
313.15 K, x1 = 1	850.16	21.64
